Values after ≈ are worked out from the molar mass of the structure shown.

The subject of experiment [1] is E. coli. Particulars: E. coli ATCC 25922, control standard. The text has this: (§1) They are expressed as milligrams of substance per liter of culture medium.
The subject of experiment [2] is P. aeruginosa. Particulars: P. aeruginosa ATCC 27853, control standard.
Excerpt: as §1

The subject of experiment [3] is S. aureus. Particulars: S. aureus ATCC29213, control standard.
Excerpt: as §1

The test system of experiment [4] is bacterial infection. Particulars: following a 10 day course of treatment with a pharmaceutical formulation. The text has this: A patient suffering from a bacterial infection is identified.
For experiment [5], the system named is E. faecalis. Particulars: ATCC 29212, control standard.

`COC1/C=C/OC2(C)Oc3c(C)c(O)c4c([O-])c(c5c([nH]c6cc(C)cc[n+]65)c4c3C2=O)NC(=O)/C(CO)=C\C=C\C(C)C(O)C(C)C(O)C(C)C(OC(C)=O)C1C` (centres unmarked) [Example 2]: the MIC in experiment [1] and in experiment [2] was 32 µg/mL (≈ 39.9 µM) in each case. Besides, the M.I.C. was 0.5 mg/mL in experiment [3] and 64 mg/mL in experiment [5]. For the same compound, the “level of bacterial infection in the patient” value in experiment [4] was “reduced”.

(Values after US8765778B2, “Rifamycin derivatives” (Alfa Wassermann, S.p.A., priority 2009, dated 2014).)
